Values after ≈ are worked out from the molar mass of the structure shown. Values joined by “and” are separate entries in the source; they are usually repeats but may differ in a detail not shown here. Equal values may be shown once. Read-outs that look alike come from different tables or passages of the source.
Key:
S. aureus DNA gyrase = S. aureus DNA gyrase (Staphylococcus aureus, UniProt P0A0K8+P20831); assay: biochemical; conditions: supercoiling of relaxed pBR322
Description: The enzymatic assay was carried using commercial topoisomerases type II as previously described by Alt et al.[55] with some modifications.
Briefly, 1 U of the enzyme (gyrase or topo IV, Inspiralis. Norwich, UK) isolated from S. aureus converts […] of relaxed pBR322 DNA to the supercoiled form (gyrase) or decatenates 200 ng of kinetoplast DNA (topo IV). […] The reactions were terminated by adding an equal volume of STEB buffer (40% sucrose, 100 mM Tris–HCl pH 8, 10 mM EDTA, and 0.5 mg/mL bromophenol blue), followed by extraction with 1 volume of chloroform/isoamyl alcohol (24:1). The samples were vortexed and centrifuged, and 20 μL of the aqueous phase of each sample was loaded onto a 1% agarose gel and left for 30 min prior to electrophoresis to allow diffusion of salt. […] Gels were stained with ethidium bromide and visualized under UV light in a transilluminator (ChemiDoc MP, Bio Rad).

[1] = target: T1, S. aureus topoisomerase IV (Staphylococcus aureus, UniProt P0C1S7+P0C1U9); assay: Topoisomerase IV decatenation assay; format: biochemical; conditions: decatenation of kinetoplast DNA; read-out: IC50 S. aureus topoisomerase IV (converted)
T1 construct: purchased Inspiralis, Norwich, UK
Description: Briefly, 1 U of the enzyme (gyrase or topo IV, Inspiralis. Norwich, UK) isolated from S. aureus converts 0.5 mg of relaxed pBR322 DNA to the supercoiled form (gyrase) or decatenates 200 ng of kinetoplast DNA (topo IV). […] The reactions were terminated by adding an equal volume of STEB buffer (40% sucrose, 100 mM Tris–HCl pH 8, 10 mM EDTA, and 0.5 mg/mL bromophenol blue), followed by extraction with 1 volume of chloroform/isoamyl alcohol (24:1). The samples were vortexed and centrifuged, and 20 μL of the aqueous phase of each sample was loaded onto a 1% agarose gel and left for 30 min prior to electrophoresis to allow diffusion of salt. […] Gels were stained with ethidium bromide and visualized under UV light in a transilluminator (ChemiDoc MP, Bio Rad).

[2] = test system: Staphylococci (standard strains); assay: MIC, standard Gram-positive strains as a panel; format: cell-based, S. aureus, S. epidermidis; conditions: for MIC: read-out: MIC toward standard Staphylococci (range over strains)
[3] = test system: P. aeruginosa ATCC 15442 and E. coli ATCC 25922; assay: MIC, standard Gram-negative rods as a panel; format: cell-based; conditions: P. aeruginosa ATCC 15442, E. coli ATCC 25922; for MIC: read-out: MIC against standard Gram-negative rods (range over strains)
M. tuberculosis Spec 210 = assay: microbe, parasite or virus in culture; format: cell-based, Mycobacterium tuberculosis
[4] = Trypan blue exclusion assay; format: cell-based, human; conditions: human; HaCaT, 72 h, compound at IC50
Text: (§1) To monitor cell proliferation in response to long-term conjugate treatment, the trypan-blue exclusion assay was further performed. […] Thus, they exerted a cytostatic effect on them, suppressing their growth and proliferation. […]. […] […].
(§2) Figure 9 Trypan blue assay. The effect of compounds 3, 15, and 21 on cell number in PC3 and HaCaT cells. […] Data are expressed as the mean ± SD. ***p ≤ 0.001, **p ≤ 0.002, and *p ≤ 0.01, as compared to the control.
(§3) Figure 10 Trypan blue assay. The effect of compounds 3, 15, and 21 on viability in PC3 and HaCaT cells. […] Data are expressed as the mean ± SD. ***p ≤ 0.001, **p ≤ 0.01, and *p ≤ 0.05, as compared to the control.

HaCaT cells [5] = assay: Trypan blue exclusion assay; format: cell-based, human; conditions: for Cell number (% of control) / Cell number x 10^6: 72 h, compound at IC50; for impact on the number of live human keratinocytes: compounds at their IC50 for PC3 cells (2.02, 15.7, 4.8 μM)
Text: as §1, §2, §3

PC3 cells [6] = assay: Trypan blue exclusion assay; format: cell-based, human; conditions: for Cell number (% of control) / Cell number x 10^6 / Viability (%): PC3, 72 h, compound at IC50
Text: as §1, §2, §3

HaCaT cells [7] = assay: Annexin V-FITC/PI binding assay, flow cytometry; format: cell-based, human; conditions: 72 h, IC50 concentration; for Dead cells / Early apoptosis / Late apoptosis / Live cells: HaCaT
Description: (§4) The PC3 and HaCaT cells were cultured and harvested under the conditions mentioned in the Cell Culture section and seeded in 12-well plates (1 × 10^5 cells per well). […] The apoptotic effect was performed using the annexin V-FITC/propidium iodide (PI) apoptosis assay kit (Becton Dickinson, Pharmingen) according to the manufacturer’s instructions and analyzed by flow cytometry (Becton Dickinson). The cells which were annexin V-FITC-positive and PI-negative were identified as early apoptotic and both annexin V-FITC- and PI-positive as late apoptotic or necrotic. The experiment was repeated three times.

PC3 cells [8] = assay: Annexin V-FITC/PI binding assay, flow cytometry; format: cell-based, human; conditions: IC50 concentration; for PC3 cells in late apoptosis or necrosis: 72 h; for Dead cells / Early apoptosis / Late apoptosis / Live cells: PC3, 72 h
Description: as §4

[9] = test system: IL-6 level in HaCaT cells; assay: Interleukin-6 ELISA; format: cell-based, human; conditions: IC50 concentration, 72 h
Description: (§5) The level of interleukin-6 (IL-6) in PC3 and HaCaT cell lines was measured by commercial human IL-6 ELISA kits Diaclon SAS (Besancon Cedex, France). […] The untreated cells were used as the control. The IL-6 level in a cell culture supernatant was measured using an enzyme-linked immunosorbent assay in accordance with the manufacturer’s instruction. The experiment was repeated three times.

IL-6 level in PC3 cells = assay: Interleukin-6 ELISA; format: cell-based, human; conditions: PC3, IC50 concentration, 72 h
Description: as §5

P. aeruginosa ATCC 15442 = assay: Bacterial growth curve assay (OD600, 18 h); format: cell-based, Pseudomonas aeruginosa; conditions: for dose that fully inhibited bacterial growth: P. aeruginosa ATCC 15442, 18 h; for exponential phase shifted to: P. aeruginosa
E. coli ATCC 25922 = assay: Bacterial growth curve assay (OD600, 18 h); format: cell-based, Escherichia coli; conditions: for lag phase elongated to: E. coli, 0.006 μg/mL
[10] = test system: E. coli ATCC 25922 biofilm; assay: Biofilm eradication assay (crystal violet); format: cell-based, Escherichia coli; conditions: 4 MIC
Description: (§6) Three bacterial strains E. coli ATCC 25922, P. aeruginosa ATCC 15442, and S. aureus ATCC 6538 were used to assign biofilm eradication properties of compounds 5, 10, 11, and CP as the reference drug. To quantify the biomass of the bacteria biofilm, the crystal violet method was used with some modifications.[52] The bacteria were incubated to the mid-log phase, diluted to 103 cfu/mL in brain–heart infusion medium, and seeded in a 96-well plate. Bacterial biofilms were formed by overnight incubation at 37 °C with rotation at 140 rpm. After biofilm formation, all wells were washed with PBS to remove nonadherent bacteria cells. […] The biofilms with tested substances were incubated for 20 h at 37 °C with shaking at 140 rpm. The bacterial biofilm was stained with 0.1% (v/v) CV for 10 min. Afterward, the biofilm was rinsed with PBS and dried. To solubilize the adsorbed crystal violet, wells with stained biofilms were incubated in 30% acetic acid. To estimate the total biofilm biomass, optical density (OD) of the resulting solution was measured at 595 nm. Biofilm assays were repeated at least three times on different days, with two technical replicates assessed each time. A minimum eradication concentration (MBEC) was determined as the lowest concentration of compound, which could damage ≥50% of the formed biofilm structure.

[11] = test system: S. aureus ATCC 6538 biofilm; assay: Biofilm eradication assay (crystal violet); format: cell-based, Staphylococcus aureus; conditions: 4–2 MIC
Description: as §6

[12] = standard Gram-positive strains of Table 1

T1 sequence (P0C1U9 whole entry): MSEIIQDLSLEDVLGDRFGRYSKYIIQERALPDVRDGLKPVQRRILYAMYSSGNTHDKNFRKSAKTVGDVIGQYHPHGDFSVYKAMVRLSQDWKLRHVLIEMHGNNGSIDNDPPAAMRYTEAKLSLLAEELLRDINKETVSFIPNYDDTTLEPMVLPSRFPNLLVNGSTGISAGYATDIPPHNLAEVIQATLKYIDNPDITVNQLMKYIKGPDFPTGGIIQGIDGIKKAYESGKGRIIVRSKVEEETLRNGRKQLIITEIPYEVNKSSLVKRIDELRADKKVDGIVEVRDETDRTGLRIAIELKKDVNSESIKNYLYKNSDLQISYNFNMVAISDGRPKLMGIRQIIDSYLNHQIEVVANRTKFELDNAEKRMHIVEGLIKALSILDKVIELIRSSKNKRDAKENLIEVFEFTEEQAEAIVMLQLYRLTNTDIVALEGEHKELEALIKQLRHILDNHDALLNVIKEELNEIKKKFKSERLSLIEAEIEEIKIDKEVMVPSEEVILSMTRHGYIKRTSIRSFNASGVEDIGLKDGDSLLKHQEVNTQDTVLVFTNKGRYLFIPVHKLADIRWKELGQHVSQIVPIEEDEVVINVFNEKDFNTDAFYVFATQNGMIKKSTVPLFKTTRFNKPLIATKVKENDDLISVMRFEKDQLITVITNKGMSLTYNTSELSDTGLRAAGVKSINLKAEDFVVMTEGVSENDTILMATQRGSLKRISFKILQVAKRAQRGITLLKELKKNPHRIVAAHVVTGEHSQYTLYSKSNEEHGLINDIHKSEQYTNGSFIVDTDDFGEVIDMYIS
T1 sequence (P0C1S7 whole entry): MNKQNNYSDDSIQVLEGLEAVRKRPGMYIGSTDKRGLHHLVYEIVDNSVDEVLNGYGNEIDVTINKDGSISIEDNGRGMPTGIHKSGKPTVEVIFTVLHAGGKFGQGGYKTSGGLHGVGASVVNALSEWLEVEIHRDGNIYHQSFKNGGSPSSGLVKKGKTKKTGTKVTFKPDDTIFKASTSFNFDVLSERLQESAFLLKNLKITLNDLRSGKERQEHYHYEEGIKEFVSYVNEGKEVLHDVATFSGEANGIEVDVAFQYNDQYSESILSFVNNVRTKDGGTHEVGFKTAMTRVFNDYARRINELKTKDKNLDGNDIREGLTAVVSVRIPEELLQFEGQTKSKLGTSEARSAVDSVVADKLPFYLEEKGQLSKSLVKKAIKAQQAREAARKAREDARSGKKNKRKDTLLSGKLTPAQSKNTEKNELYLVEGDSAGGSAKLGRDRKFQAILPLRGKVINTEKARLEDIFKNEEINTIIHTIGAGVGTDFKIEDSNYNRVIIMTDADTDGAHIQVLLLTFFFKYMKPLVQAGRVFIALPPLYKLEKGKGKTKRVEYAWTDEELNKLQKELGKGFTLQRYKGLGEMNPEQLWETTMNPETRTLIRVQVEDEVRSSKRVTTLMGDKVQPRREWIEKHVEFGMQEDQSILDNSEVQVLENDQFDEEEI
Chain of S. aureus DNA gyrase (P0A0K8 whole entry): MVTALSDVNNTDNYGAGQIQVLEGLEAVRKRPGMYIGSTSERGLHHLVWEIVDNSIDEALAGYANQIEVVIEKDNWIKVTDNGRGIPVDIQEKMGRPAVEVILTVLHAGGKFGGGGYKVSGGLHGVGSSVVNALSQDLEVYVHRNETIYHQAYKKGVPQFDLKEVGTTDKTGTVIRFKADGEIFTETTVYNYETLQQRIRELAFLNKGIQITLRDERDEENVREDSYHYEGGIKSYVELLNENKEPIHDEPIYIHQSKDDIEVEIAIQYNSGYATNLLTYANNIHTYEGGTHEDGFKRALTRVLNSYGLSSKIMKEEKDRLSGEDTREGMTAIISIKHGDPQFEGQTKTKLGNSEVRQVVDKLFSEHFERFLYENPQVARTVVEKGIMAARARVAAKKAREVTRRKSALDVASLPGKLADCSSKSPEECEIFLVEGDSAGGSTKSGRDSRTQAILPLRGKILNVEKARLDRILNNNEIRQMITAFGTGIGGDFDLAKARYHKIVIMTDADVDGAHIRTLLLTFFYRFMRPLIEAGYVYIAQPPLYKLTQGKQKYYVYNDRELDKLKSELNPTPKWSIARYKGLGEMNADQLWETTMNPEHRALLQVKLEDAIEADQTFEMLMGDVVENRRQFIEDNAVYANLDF
Chain of S. aureus DNA gyrase (P20831 whole entry): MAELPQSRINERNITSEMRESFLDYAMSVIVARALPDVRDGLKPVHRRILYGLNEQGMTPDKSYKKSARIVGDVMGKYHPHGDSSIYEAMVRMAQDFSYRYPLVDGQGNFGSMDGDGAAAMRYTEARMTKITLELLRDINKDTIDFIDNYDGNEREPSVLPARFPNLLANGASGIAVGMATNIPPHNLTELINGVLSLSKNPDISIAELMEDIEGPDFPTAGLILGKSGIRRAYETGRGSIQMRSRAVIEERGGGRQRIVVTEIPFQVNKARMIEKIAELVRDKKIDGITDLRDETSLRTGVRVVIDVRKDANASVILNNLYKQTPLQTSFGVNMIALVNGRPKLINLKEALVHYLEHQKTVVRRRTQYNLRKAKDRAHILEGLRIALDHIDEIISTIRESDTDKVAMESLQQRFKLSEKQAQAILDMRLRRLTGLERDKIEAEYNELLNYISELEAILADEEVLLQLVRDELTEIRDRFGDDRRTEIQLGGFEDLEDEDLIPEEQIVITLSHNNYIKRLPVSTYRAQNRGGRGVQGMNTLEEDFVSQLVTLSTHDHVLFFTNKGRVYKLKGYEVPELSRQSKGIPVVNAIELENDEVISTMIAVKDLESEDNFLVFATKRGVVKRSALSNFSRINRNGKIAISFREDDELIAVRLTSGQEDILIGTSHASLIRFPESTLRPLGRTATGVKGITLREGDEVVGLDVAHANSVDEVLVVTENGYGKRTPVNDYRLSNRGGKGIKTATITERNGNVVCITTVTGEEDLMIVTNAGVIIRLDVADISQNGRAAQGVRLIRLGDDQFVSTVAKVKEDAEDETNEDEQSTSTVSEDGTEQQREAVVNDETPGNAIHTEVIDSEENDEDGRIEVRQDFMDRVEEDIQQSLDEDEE

## O=C(O)c1cn(C2CC2)c2cc(N3CCN(C(=O)C4CC4)CC3)c(F)cc2c1=O [Compound 2, 7-(4-Cyclopropanecarbonyl-piperazin-1-yl)-1-cyclopropyl-6-fluoro-4-oxo-1,4-dihydro-quinoline-3-carboxylic Acid]
S. aureus DNA gyrase
  IC50: 22.3 µM
[1]
  IC50: 23.8 µM
[2]
  MIC: 0.05 to 0.4 µg/mL (≈ 0.125 to 1 µM)
[2]; [12]
  fold more active than CP toward standard Staphylococci: 1.25–10 fold
[3]
  share of CP potency kept against standard Gram-negative rods: 30–60%
  MIC: 0.025 to 0.2 µg/mL (≈ 0.0626 to 0.501 µM)

## O=C(O)c1cn(C2CC2)c2cc(N3CCN(C(=O)CCl)CC3)c(F)cc2c1=O [Compound 3, 7-[4-(2-Chloroacetyl)-piperazin-1-yl]-1-cyclopropyl-6-fluoro-4-oxo-1,4-dihydro-quinoline-3-carboxylic Acid]
M. tuberculosis Spec 210; M. tuberculosis Spec. 210
  fold more effective than the reference tuberculostatics: 8–32 fold
S. aureus DNA gyrase
  IC50: 61.3 µM
[1]
  IC50: 78.5 µM
[4]
  viability at 72 h: 75 ± 2.23%
HaCaT cells [5]
  Cell number (% of control): 12.15 % of control
  Cell number x 10^6: 0.2 ± 0.01 x 10^6
  impact on the number of live human keratinocytes: negligible impact
PC3 cells [6]; 72 h, IC50 concentration
  decrease of PC3 cell viability: 48%
PC3 cells [6]
  Cell number (% of control): 1.97 % of control
  Cell number x 10^6: 0.04 ± 0.01 x 10^6
  Viability (%): 52 ± 2.40%
HaCaT cells [7]
  HaCaT cells in late apoptosis/necrosis: 47.23%
  Dead cells: 9.99 ± 1.17%
  Early apoptosis: 10.07 ± 1.22%
  Late apoptosis: 37.24 ± 2.27%
  Live cells: 42.70 ± 2.81%
PC3 cells [8]
  PC3 cells in late apoptosis or necrosis: 78.22%
  Dead cells: 66.10 ± 6.31%
  Early apoptosis: 1.51 ± 0.04%
  Late apoptosis: 12.12 ± 2.18%
  Live cells: 20.27 ± 0.45%
[9]
  effect on IL-6 in human keratinocytes: stimulated human keratinocytes to produce IL-6
IL-6 level in PC3 cells
  decrease of IL-6 release as compared to the control: 3.5 times
[3]
  MIC: ≤ 1 µg/mL

## O=C(O)c1cn(C2CC2)c2cc(N3CCN(C(=O)CCCCl)CC3)c(F)cc2c1=O [Compound 5, 7-[4-(4-Chlorobutyryl)-piperazin-1-yl]-1-cyclopropyl-6-fluoro-4-oxo-1,4-dihydro-quinoline-3-carboxylic Acid]
S. aureus DNA gyrase
  IC50: 7.34 µM
[1]
  IC50: 6.19 µM
P. aeruginosa ATCC 15442
  dose that fully inhibited bacterial growth: ≥ 0.2 µg/mL
P. aeruginosa ATCC 15442; 0.03 μg/mL
  exponential phase shifted to: 7 to 12 h
P. aeruginosa ATCC 15442; 0.05 μg/mL
  exponential phase shifted to: 8 to 15 h
E. coli ATCC 25922
  lag phase elongated to: 6 h
[10]
  eradication of the biofilm formed by E. coli: approx. 20%
[3]
  share of CP potency kept against standard Gram-negative rods: 30–60%
  MIC: 0.025 to 0.2 µg/mL (≈ 0.0574 to 0.459 µM)

## O=C(O)c1cn(C2CC2)c2cc(N3CCN(C(=O)CCCBr)CC3)c(F)cc2c1=O [Compound 10, 7-[4-(4-Bromobutyryl)-piperazin-1-yl]-1-cyclopropyl-6-fluoro-4-oxo-1,4-dihydro-quinoline-3-carboxylic Acid]
S. aureus DNA gyrase
  IC50: 16.4 µM
[1]
  IC50: 10.4 µM
P. aeruginosa ATCC 15442
  dose that fully inhibited bacterial growth: ≥ 0.2 µg/mL
E. coli ATCC 25922
  lag phase elongated to: 9 h
[3]
  share of CP potency kept against standard Gram-negative rods: 60%
  MIC: 0.025 to 0.1 µg/mL (≈ 0.052 to 0.208 µM)

## O=C(O)c1cn(C2CC2)c2cc(N3CCN(C(=O)CCCCBr)CC3)c(F)cc2c1=O [Compound 11, 7-[4-(5-Bromopentanoyl)-piperazin-1-yl]-1-cyclopropyl-6-fluoro-4-oxo-1,4-dihydro-quinoline-3-carboxylic Acid]
S. aureus DNA gyrase
  IC50: 16.2 µM
[1]
  IC50: 12.1 µM
P. aeruginosa ATCC 15442
  dose that fully inhibited bacterial growth: ≥ 0.2 µg/mL
E. coli ATCC 25922; E. coli ATCC 25922, 18 h
  concentration that inhibited bacterial cell growth: ≥ 0.025 µg/mL
[10]
  eradication of the biofilm formed by E. coli: approx. 20%
[11]
  elimination of the mature biofilm of S. aureus ATCC 6538: 19–25%
[2]; [12]
  fold more active than CP toward standard Staphylococci: 1.25–2.5 fold
[3]
  share of CP potency kept against standard Gram-negative rods: 60%
  MIC: 0.025 to 0.1 µg/mL (≈ 0.0506 to 0.202 µM)

## O=C(O)c1cn(C2CC2)c2cc(N3CCN(C(=O)CCC(F)(F)F)CC3)c(F)cc2c1=O [Compound 15, 7-[4-(4,4,4-Trifluorobutyryl)-piperazin-1-yl]-1-cyclopropyl-6-fluoro-4-oxo-1,4-dihydro-quinoline-3-carboxylic Acid]
[4]
  viability at 72 h: 90 ± 3.04%
HaCaT cells [5]
  Cell number (% of control): 48.38 % of control
  Cell number x 10^6: 0.8 ± 0.10 x 10^6
  impact on the number of live human keratinocytes: negligible impact
PC3 cells [6]
  Cell number (% of control): 12.04 % of control
  Cell number x 10^6: 0.3 ± 0.08 x 10^6
  Viability (%): 82 ± 2.64%
HaCaT cells [7]
  HaCaT cells in late apoptosis/necrosis: did not indicate appreciable apoptosis-inducing action
  Dead cells: 0.3 ± 0.01%
  Early apoptosis: 11.63 ± 2.93%
  Late apoptosis: 0.77 ± 0.05%
  Live cells: 87.32 ± 2.20%
PC3 cells [8]
  PC3 cells in late apoptosis or necrosis: 37.64%
  Dead cells: 21.15 ± 3.29%
  Early apoptosis: 1.15 ± 0.10%
  Late apoptosis: 16.49 ± 2.65%
  Live cells: 61.21 ± 2.06%
[9]
  effect on IL-6 in human keratinocytes: No significant pro- or anti-inflammatory properties
IL-6 level in PC3 cells
  decrease of IL-6 release as compared to the control: 1.9 times
[2]; [12]
  MIC: 0.2 µg/mL (≈ 0.439 µM)

## O=C(O)c1cn(C2CC2)c2cc(N3CCN(CCCCCCCCCCC(=O)N4CCN(c5cc6c(cc5F)c(=O)c(C(=O)O)cn6C5CC5)CC4)CC3)c(F)cc2c1=O [Compound 21, CP–Undecanoyl–CP Dimer]
M. tuberculosis Spec 210
  fold more effective than the reference tuberculostatics: 8–32 fold
[4]
  viability at 72 h: 94 ± 4.01%
HaCaT cells [5]
  Cell number (% of control): 19.35 % of control
  Cell number x 10^6: 0.3 ± 0.01 x 10^6
  impact on the number of live human keratinocytes: negligible impact
PC3 cells [6]
  Cell number (% of control): 6.22 % of control
  Cell number x 10^6: 0.2 ± 0.03 x 10^6
  Viability (%): 78 ± 1.50%
HaCaT cells [7]
  HaCaT cells in late apoptosis/necrosis: 34.95%
  Dead cells: 14.24 ± 3.78%
  Early apoptosis: 10.52 ± 1.07%
  Late apoptosis: 20.71 ± 4.34%
  Live cells: 54.53 ± 3.34%
PC3 cells [8]
  PC3 cells in late apoptosis or necrosis: 69.29%
  Dead cells: 52.91 ± 3.99%
  Early apoptosis: 28.22 ± 0.98% and 28.22%
  Late apoptosis: 16.28 ± 2.80%
  Live cells: 2.59 ± 0.20%
[9]
  effect on IL-6 in human keratinocytes: stimulated human keratinocytes to produce IL-6
